The record followed here is patent US20250073184A1, “CANNABIGEROQUINONE COMPOUNDS, COMPOSITIONS INCLUDING SUCH COMPOUNDS, AND USES OF SUCH COMPOUNDS AND COMPOSITIONS” (Juva Life, Inc., priority 2021, published 2025).

This assay deals with T1, Human COX2 (Homo sapiens, UniProt P35354).
T1 construct: 1-604 (end); purchased BPS Biosciences 71111; host or cells: baculovirus infected Sf9 cells
T1 sequence (P35354 18-604): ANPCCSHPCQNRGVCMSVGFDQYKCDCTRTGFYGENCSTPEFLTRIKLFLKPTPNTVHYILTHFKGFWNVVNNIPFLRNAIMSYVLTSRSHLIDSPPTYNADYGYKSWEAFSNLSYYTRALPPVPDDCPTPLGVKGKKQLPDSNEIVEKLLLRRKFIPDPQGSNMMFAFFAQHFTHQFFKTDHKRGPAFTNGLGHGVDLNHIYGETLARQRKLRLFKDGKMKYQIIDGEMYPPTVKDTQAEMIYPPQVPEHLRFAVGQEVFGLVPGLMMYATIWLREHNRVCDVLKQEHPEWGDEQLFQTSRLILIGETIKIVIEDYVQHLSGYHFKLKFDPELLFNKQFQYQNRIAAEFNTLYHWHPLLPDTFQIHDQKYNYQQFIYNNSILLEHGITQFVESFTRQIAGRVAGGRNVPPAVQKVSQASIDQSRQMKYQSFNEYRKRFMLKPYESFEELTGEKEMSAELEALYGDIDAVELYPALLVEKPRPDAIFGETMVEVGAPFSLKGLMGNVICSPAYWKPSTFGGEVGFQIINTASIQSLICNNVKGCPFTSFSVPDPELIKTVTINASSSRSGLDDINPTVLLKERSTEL
As to the kind of experiment: Biochemical COX-2 assay. Particulars: recombinant enzyme; read-out: Inhibitory Activity EC50, Cox2. An excerpt:
• Human COX2, GenBank Accession No. NM_000963, a.a. 1-604 (end), with C-terminal FLAG-His-tag, MW=71 kDa, expressed in a baculovirus infected Sf9 cell expression system was obtained from BPS Biosciences (Catalog #71111) • Cyclooxygenase (COX) Activity Assay Kit (Fluorometric) was obtained from Abcam (Catalog #ab204699) • Other reagents: black 384 well assay plates were obtained from Corning (Cat #3820). • Equipment: Synergy Neo2 Multi-mode plate reader (Biotek), Labcyte 550 acoustic dispenser (Labcyte), Biomek FX robotic dispenser (Beckman Coulter), Sorvall Legend RT centrifuge (Kendro).
Serially diluted compounds were prepared in DMSO in Echo qualified 384 well plates. An assay buffer was then prepared, and supplemented with Cox cofactor and fluorogenic probe as described in the Cox activity kit manual. […]
Serially diluted compounds were added to the assay plate by acoustic dispensing (Labcyte 550). […] Afterwards, the plate was read on a Synergy Neo2 in fluorescence mode: excitation 535 nm, emission 590 nm. % inhibition of the compound was calculated using following equation:
where RFU100% is fluorescence in control samples without compound, RFU0% is fluorescence in control samples without COX-2, and RFU compound fluorescence in a sample with compound.
The calculated %-Inh values were then plotted against compound concentration. […]

For Cannabigerol Quinone [Formula VI], the EC50 (in general, the midpoint of the concentration-response curve) is 60.6 µM.
